Drawing on ChEMBL document CHEMBL5137120, “Modified ent-Abietane Diterpenoids from the Leaves of Suregada zanzibariensis” (J Nat Prod, 2022), this text covers Activity and IC50 for three compounds.

Series [1] is described as follows: Cytotoxicity against African green monkey GMK-AH-1 cell assessed as cell growth inhibition at >=100 uM incubated for 3 days by CellTiter96 Aqueous one reagent based assay. Format: toxicity. Particulars: chlorocebus aethiops, gmk-ah-1, 72 h, time 3 day.
Series [2] can be described thus: Cytotoxicity against human THP-1 cells assessed as cell growth inhibition incubated for 24 hrs by MTT assay. Format: toxicity, cell-based.

`C=C1[C@@H](C)CC(=O)[C@@]2(C)[C@@H]3C[C@H]4OC(=O)C(C)=C4[C@H]4O[C@]43CC[C@]12O`: in series [1], the Activity entry is “Non-Toxic”.
On to `C=C1[C@@H](C)CC(=O)[C@@]2(C)[C@@H]3C[C@H]4OC(=O)C(C)=C4C=C3CC[C@]12O`, for which the Activity entry in series [1] is “Non-Toxic”.
`CC(C)[C@H]1CC[C@@H]2[C@]1(C)CC[C@]1(C)[C@H]3CC=C4[C@@H](CC[C@H](O)C4(C)C)[C@]3(C)CC[C@@]21C`: the Activity result in series [1] is recorded as “Non-Toxic”. For the same compound, the IC50 at 24 h in series [2] was 1.78 µM.
